Data reported in ChEMBL document CHEMBL3868605, “Flavans with potential anti-inflammatory activities from Zephyranthes candida” (Bioorg Med Chem Lett, 2016).

What was measured:
[1] = Cytotoxicity against mouse RAW264.7 cells assessed as cell survival rate at 200 uM after 24 hrs in presence of LPS by MTT assay; assay type: toxicity; settings: read-out: Survival
[2] = Antiinflammatory activity in mouse RAW264.7 cells assessed as inhibition of LPS-induced nitric oxide production after 24 hrs in presence of LPS by Griess assay; assay type: functional, cell-based; settings: RAW264.7, 24 h
[3] = Cytotoxicity against mouse RAW264.7 cells assessed as cell survival rate at 200 uM after 24 hrs in absence of LPS by MTT assay; assay type: toxicity; settings: read-out: Survival

Row | SMILES | viability at 24 h, 200 µM [1] [%] | IC50 [2] [µM] | viability at 24 h, 200 µM [3] [%]
1 | COc1ccc([C@@H]2CCc3ccc(O)cc3O2)cc1O[C@@H]1O[C@H](CO)[C@@H](O)[C@H](O)[C@H]1O | 114 | 16.1 | 123
2 | COc1ccc([C@@H]2CCc3ccc(O[C@@H]4O[C@H](CO)[C@@H](O)[C@H](O)[C@H]4O)cc3O2)cc1O | 116 | 21.5 | 104
3 | COc1ccc2c(c1)O[C@H](c1ccccc1)[C@H](O)C2 | 104 | 17.3 | 119
4 | C[C@@H]1C[C@H]2[C@@H]3CCC4=CC(=O)C=C[C@]4(C)[C@@]3(F)[C@@H](O)C[C@]2(C)[C@@]1(O)C(=O)CO [DEXAMETHASONE] | 100 | 0.63 | 91
